The values below come from patent US12612424B2, “HPK1 inhibitors and uses thereof” (Regor Pharmaceuticals, Inc., priority 2019, dated 2026).

The target in assay [1] is HPK1 (Homo sapiens, UniProt Q92918). Kind of assay: HPK1 biochemical assay (ADP-GLO Kinase Assay). From the text: IC50 values of any compounds can be determined accordingly over a range of inhibitor concentrations. In addition, the inhibitory effect of the compounds can also be assess using a biological assay, to determine the effect of the compounds on cytokine secretion by T cells following TCR and CD28 stimulation.
Biology Example 1 HPK1 Biochemical Assay
This example used the ADP-GLO™ Kinase Assay to measure the effect of potential HPK1 inhibitor compounds on HPK1 kinase activity.
The ADP-GLO™ Kinase Assay (Promega Corp., Madison, WI) measures ADP formed from a kinase reaction. According to the manufacture, the ADP formed in a kinase assay is first converted into ATP, which is then used to generate light in a luciferase reaction. The luminescence generated correlates with kinase activity. An exemplary experimental setting is described below, though minor adjustments can be made in individual assays.
Serial 3-fold dilution of compounds from 10 μM (top concentration) to 0.508 nM (lowest concentration). Positive control is 10 μM Reference+enzyme+substrate. Negative control is 1% DMSO+enzyme+substrate.
• 1. Buffer Preparation • 40 mM Tris pH7.5; 20 mM MgCl2, 0.1 mg/ml BSA, 50 μM DTT Buffer Stock
Add 20 mL 1M Tris and 10 mL 1M MgCl2 to 470 mL ddH2O to get buffer stock, and stock at RT. • 2. Preparing Fresh 1* Assay Buffer
• 3. Compounds Preparation • 1) The compounds were diluted to 1 mM, by mixing 10 μL of 10 mM respective compound stocks with 90 μL of DMSO. • 2) The compounds were then diluted 3-fold for 10 doses (5 μL to 10 μL dilution) by BRAVO. The top compound conc. was 1 mM (100×), DMSO Conc. was 100%. • 3) Transfer 100 nL of each diluted compound sample to 384-well plate (Corning-4512) by ECHO. • 4) Centrifuge the plate at 1,500 rpm for 1 minute. • 4. Preparation of 2×ATP-MBP Mixture: • 20 μM ATP, 0.2 μg/μL MBP in Kinase Buffer (final concentration: 10 μM ATP, 0.1 MBP)
• 5. Preparation of 2×HPK1 working solution with assay buffer. • HPK1 final concentration was 0.6 ng/μL. […] Incubate at 25° C. for 40 min. • 11. Record luminescence signal on an Envision plate reader (384-CTG). 5. Data Analysis
The percent (%) inhibition at each concentration of compound is calculated based on and relative to the signal in the High and Low control wells contained within each assay plate. […] The concentrations and % inhibition values for tested compounds were plotted and the concentration of compound required for 50% inhibition (IC50) was determined with a Three-parameter logistic dose response equation. The endpoint value (IC50) for the reference peptide/compound was evaluated in each experiment as a quality control measure. If the endpoint value was within 3-fold of the expected value, then the experiment was deemed acceptable.
(In general: In ADP-Glo the light output rises with the ADP produced.)

The target of assay [2] is T1, JAK3 (Homo sapiens, UniProt P52333).
T1 construct: purchased Thermo fisher PV3855
Kind of assay: JAK3 biochemical assay (ADP-GLO Kinase Assay). Particulars: for JAKs/HPK1 IC50 Ratio, B*: first testing facility. How it is done:
Biology Example 4 JAK3 Biochemical Assay
This example used the ADP-GLO™ Kinase Assay to measure the effect of potential HPK1 inhibitor compounds on JAK3 kinase activity. An exemplary experimental setting is described below, though minor adjustments can be made in individual assays.
3. Procedures • 1. Prepare JAK3 kinase buffer • Freshly adding DTT and BSA into Buffer (Final Conc.: 40 mM Tris pH7.5; 20 mM MgCl2, 0.1 mg/ml BSA, 50 μM DTT).
• 2. Compounds Preparation • For tested compounds: compounds were diluted to 1 mM, by mixing 5 μL of 10 mM compound stocks to 45 μL DMSO. The compounds solutions were then serially diluted 3-fold for 10 doses. The top compound concentration was 1 mM (100×), DMSO concentration was 100%. • 50 nL of each of 10 doses of diluted compound were added to 384-well assay plate (Corning #4512) by ECHO. • For positive control, 50 nL of 1 mM reference compound were added to 384-well assay plate (Corning #4512) by ECHO. • For negative control: 50 nL of DMSO was transferred into 384-well assay plate as a negative control. • The assay plate was centrifuged at 1,500 rpm for 1 minute. • 3. Compounds were Transferred by ECHO Following the Layout Below: • Reference and test compounds 1-15: serial 3-fold dilution from 10 μM to 0.508 nM (10 doses); negative control is 0.78 ng JAK3, 4 μM ATP & 0.2 μg/μL poly, 1% DMSO; positive control is the top dose of the reference compound, 0.78 ng JAK3, 0.2 μg/μL Poly(E4Y1), 4 μMATP, 1% DMSO. • 4. Add 2.5 μL/well of 2×JAK3 working solution using pipette (Thermo, 30 μL multi-channel), Centrifuge at 1,500 rpm for 1 minute. • 5. Add 2.5 μL/well of 2×ATP-Poly(E4Y1) working mixture using pipette (Thermo, 30 μL multi-channel), Centrifuge at 1,500 rpm for 1 minute. • 6. Incubate the assay plate at 25° C. for 60 min. • 7. Add 5 μL/well ADP-GLO™ Reagent by BRAVO to stop the kinase reaction and deplete the unconsumed ATP after 1 hour. Centrifuge at 1,500 rpm for 1 minute. Incubate at 25° C. for 40 min. • 8. Add 10 uL of Kinase Detection Reagent by BRAVO to convert ADP to ATP. Centrifuge at 1,500 rpm for 1 minute. Incubate at 25° C. for 40 min. • 9. Record luminescence signal on an Envision plate reader (384-USL). • 10. Process data using XL-fit. Inhibition %=[1-(test well−Negative control)/(positive control−Negative control)]*100%. 5. Data Analysis
The percent (%) inhibition at each concentration of compound is calculated based on and relative to the signal in the Negative and Positive control wells contained within each assay plate. The Negative control wells served as 0% inhibition, and the Positive control wells served as 100% inhibition. The concentrations and % inhibition values for tested compounds are plotted and the concentration of compound required for 50% inhibition (IC50) is determined with a Three-parameter logistic dose response equation. The endpoint value (IC50) for the reference peptide/compound is evaluated in each experiment as a quality control measure. If the endpoint value was within 3-fold of the expected value then the experiment was deemed acceptable.

Where [3] appears, read: B*: testing performed in a first testing facility, read-out: HPK1 IC50 (nM) Relative, B*.
[4] abbreviates: B*: testing performed in a first testing facility, read-out: JAK3 IC50 (nM) Relative, B*.
Where [5] appears, read: ratio of JAK3 IC50 to HPK1 IC50.

Structures are written as SMILES. Where two headings read alike, the source gives them in different places.

The IC50 is the point on the concentration scale where inhibition reaches its midpoint.

T1 sequence (P52333 781-1124 limits assumed): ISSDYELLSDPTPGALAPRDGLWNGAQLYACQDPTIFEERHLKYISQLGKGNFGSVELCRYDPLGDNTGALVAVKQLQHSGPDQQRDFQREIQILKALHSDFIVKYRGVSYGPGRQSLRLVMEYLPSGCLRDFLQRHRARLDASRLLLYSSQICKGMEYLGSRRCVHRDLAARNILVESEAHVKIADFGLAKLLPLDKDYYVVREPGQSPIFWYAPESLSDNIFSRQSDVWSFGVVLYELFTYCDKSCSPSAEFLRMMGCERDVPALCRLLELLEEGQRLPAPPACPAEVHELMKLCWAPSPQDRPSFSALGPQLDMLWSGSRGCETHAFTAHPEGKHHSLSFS
Sequence of HPK1 (Q92918 whole entry): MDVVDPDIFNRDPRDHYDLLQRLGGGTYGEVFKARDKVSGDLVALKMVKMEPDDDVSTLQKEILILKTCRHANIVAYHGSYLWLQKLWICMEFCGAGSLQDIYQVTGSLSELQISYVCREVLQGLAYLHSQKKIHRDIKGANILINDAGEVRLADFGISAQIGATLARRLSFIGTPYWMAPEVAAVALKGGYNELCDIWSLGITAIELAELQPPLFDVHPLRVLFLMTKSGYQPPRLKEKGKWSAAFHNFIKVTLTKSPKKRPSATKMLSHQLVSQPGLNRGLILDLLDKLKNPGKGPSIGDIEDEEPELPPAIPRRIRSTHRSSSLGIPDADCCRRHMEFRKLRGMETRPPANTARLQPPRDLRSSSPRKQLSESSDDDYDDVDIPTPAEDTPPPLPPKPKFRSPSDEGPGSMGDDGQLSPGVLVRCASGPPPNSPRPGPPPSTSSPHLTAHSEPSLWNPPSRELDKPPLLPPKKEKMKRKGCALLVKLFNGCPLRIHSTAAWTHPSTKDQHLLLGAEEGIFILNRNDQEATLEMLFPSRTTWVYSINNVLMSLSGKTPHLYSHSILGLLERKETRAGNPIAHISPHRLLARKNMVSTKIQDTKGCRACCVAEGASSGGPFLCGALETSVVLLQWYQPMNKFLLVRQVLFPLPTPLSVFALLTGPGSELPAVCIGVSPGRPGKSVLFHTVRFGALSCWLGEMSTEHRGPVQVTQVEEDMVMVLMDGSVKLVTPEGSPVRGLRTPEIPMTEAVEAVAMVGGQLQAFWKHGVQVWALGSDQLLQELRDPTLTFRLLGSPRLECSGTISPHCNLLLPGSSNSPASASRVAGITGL

`COc1cc2c(cc1Nc1ncc(Cl)c(N3CC(C(=O)O)c4ccccc43)n1)CN(C)CC2` (single isomer, unassigned) [Example 95]: the IC50 in assay [1] (setting [3]) is not above 100 nM; in assay [2] (setting [4]), more than 1000 nM. In addition, the “JAKs/HPK1 IC50 Ratio, B*” value in assay [2] (setting [5]) amounted to 150.
Turning to `COc1cc2c(cc1Nc1ncc(Cl)c(N3CCc4ccccc4C3)n1)CN(C)CC2` [Example 5, N-(5-chloro-4-(3,4-dihydroisoquinolin-2(1H)-yl)pyrimidin-2-yl)-6-methoxy-2-methyl-1,2,3,4-tetrahydroisoquinolin-7-amine], the IC50 in assay [1] (setting [3]) lay in the range of 100 to 500 nM.
As to `COc1cc2c(cc1Nc1ncc(Cl)c(N3CCCc4ccccc43)n1)CN(C)CC2` [Example 6, N-(5-chloro-4-(3,4-dihydroquinolin-1(2H)-yl)pyrimidin-2-yl)-6-methoxy-2-methyl-1,2,3,4-tetrahydroisoquinolin-7-amine], the figures for the IC50 in assay [1] (setting [3]) and in assay [2] (setting [4]) were not above 100 nM and more than 1000 nM, respectively.
In the case of `COc1cc2c(cc1Nc1ncc(Cl)c(N3CCOc4ccccc43)n1)CN(C)CC2` [Example 7, N-(5-chloro-4-(2,3-dihydro-4H-benzo[b][1,4]oxazin-4-yl)pyrimidin-2-yl)-6-methoxy-2-methyl-1,2,3,4-tetrahydroisoquinolin-7-amine], the IC50 in assay [1] (setting [3]) is not above 100 nM; in assay [2] (setting [4]), more than 1000 nM. For the same compound, the “JAKs/HPK1 IC50 Ratio, B*” value in assay [2] (setting [5]) was more than 118.
Consider `COc1cc2c(cc1Nc1ncc(Cl)c(N3CCc4c(Cl)cccc43)n1)CN(C)CC2` [Example 12, N-(5-chloro-4-(4-chloroindolin-1-yl)pyrimidin-2-yl)-6-methoxy-2-methyl-1,2,3,4-tetrahydroisoquinolin-7-amine], for which the IC50 in assay [1] (setting [3]) was in the range of 100 to 500 nM.
In the case of `COc1cc2c(cc1Nc1ncc(Cl)c(N3CCc4cccnc43)n1)CN(C)CC2` [Example 17, N-(5-chloro-4-(2,3-dihydro-1H-pyrrolo[2,3-b]pyridin-1-yl)pyrimidin-2-yl)-6-methoxy-2-methyl-1,2,3,4-tetrahydroisoquinolin-7-amine], the IC50 in assay [1] (setting [3]) was in the range of 100 to 500 nM.
For `COc1cc2c(cc1Nc1ncc(Cl)c(N3CCc4ccccc43)n1)CN(C(=O)CN(C)C)CC2` [Example 26], the concentration for half-maximal inhibition (IC50) in assay [1] (setting [3]) was not above 100 nM.
In the case of `COc1cc2c(cc1Nc1ncc(Cl)c(-n3c(C(=O)N(C)C)cc4ccccc43)n1)CN(C)CC2` [Example 28], the half-inhibitory concentration (IC50) in assay [1] (setting [3]) is more than 1000 nM.
In the case of `COc1cc2c(cc1Nc1ncc(Cl)c(N3CCn4c3cccc4=O)n1)CN(C)CC2` [Example 31], the IC50 was 100 to 500 nM in assay [1] (setting [3]) and more than 1000 nM in assay [2] (setting [4]). Further, the “JAKs/HPK1 IC50 Ratio, B*” value in assay [2] (setting [5]) came out at 31.
On to `COc1cc2c(cc1Nc1ncc3ccn(-c4ccccc4C(=O)N(C)C)c3n1)CN(C)CC2` [Example 38], for which the IC50 was 100 to 500 nM in assay [1] (setting [3]); not above 100 nM in assay [1] (N*: testing performed in a second testing facility, read-out: HPK1 IC50 (nM) Relative, N*); more than 1000 nM in assay [2] (N*: testing performed in a second testing facility, read-out: JAK3 IC50 (nM) Relative, N*). For the same compound, the “JAKs/HPK1 IC50 Ratio, N*” value in assay [2] (ratio of JAK3 IC50 to HPK1 IC50, second testing facility) was more than 163.
With `COc1cc2c(cc1Nc1ncc3ccn(-c4cccnc4)c3n1)CN(C)CC2` [Example 40, 6-Methoxy-2-methyl-N-(7-(pyridin-3-yl)-7H-pyrrolo[2,3-d]pyrimidin-2-yl)-1,2,3,4-tetrahydroisoquinolin-7-amine], the IC50 in assay [1] (setting [3]) was not above 100 nM.
In the case of `COc1cc2c(cc1Nc1ncc3ncn(-c4ccccc4P(C)(C)=O)c3n1)CN(C)CC2` [Example 45, (2-(2-((6-Methoxy-2-methyl-1,2,3,4-tetrahydroisoquinolin-7-yl)amino)-9H-purin-9-yl)phenyl)dimethylphosphine oxide], the half-inhibitory concentration (IC50) in assay [1] (setting [3]) is more than 1000 nM.
`COc1cc2c(cc1Nc1ncc3c(n1)N(c1ccccc1)CCO3)CN(C)CC2` [Example 46, N-(6-methoxy-2-methyl-1,2,3,4-tetrahydroisoquinolin-7-yl)-8-phenyl-7,8-dihydro-6H-pyrimido[5,4-b][1,4]oxazin-2-amine]: in assay [1] (setting [3]), the IC50 fell in the range of 100 to 500 nM.
The same measure, in the same setting: with `COc1cc2c(cc1Nc1ncc(Cl)c(-c3ccnc4ccccc34)n1)CN(C)CC2` [Example 49, N-(5-chloro-4-(quinolin-4-yl)pyrimidin-2-yl)-6-methoxy-2-methyl-1,2,3,4-tetrahydroisoquinolin-7-amine] the figure was 100 to 500 nM; with `CCc1c[nH]c2ncc(-c3ccc(Cl)c(P(C)(C)=O)c3)cc12` [Example 52, (2-Chloro-5-(3-ethyl-1H-pyrrolo[2,3-b]pyridin-5-yl)phenyl)dimethylphosphine oxide], not above 100 nM; with `CCc1c[nH]c2ncc(-c3cccc(P(C)(C)=O)c3)cc12` [Example 53, (3-(3-Ethyl-1H-pyrrolo[2,3-b]pyridin-5-yl)phenyl)dimethylphosphine oxide], 100 to 500 nM.
Take `CCc1c[nH]c2ncc(-c3ccc(OC)c(P(C)(C)=O)c3)cc12` [Example 54, (5-(3-Ethyl-1H-pyrrolo[2,3-b]pyridin-5-yl)-2-methoxyphenyl)dimethylphosphine oxide]: the IC50 in assay [1] (setting [3]) lay within 100 to 500 nM.
Same read-out and setting: then `CCc1c[nH]c2ncc(-c3cc(C)cc(P(C)(C)=O)c3)cc12` [Example 56, (3-(3-Ethyl-1H-pyrrolo[2,3-b]pyridin-5-yl)-5-methylphenyl)dimethylphosphine oxide], with 500 to 1000 nM; and `CCc1c[nH]c2ncc(-c3ccc(N4CCCC4)c(P(C)(C)=O)c3)cc12` [Example 59], with 100 to 500 nM.
Turning to `CCc1c[nH]c2ncc(-c3ccc(NC)c(P(C)(C)=O)c3)cc12` [Example 71, (5-(3-Ethyl-1H-pyrrolo[2,3-b]pyridin-5-yl)-2-(methylamino)phenyl)dimethylphosphine oxide], in assay [1] (setting [3]), the IC50 lay in the range of 100 to 500 nM.
For the compound `COc1cc2c(cc1Nc1ncc3ccc(P(C)(C)=O)cc3n1)CN(C)CC2` [Example 172], in assay [1] (setting [3]), the half-maximal inhibitory concentration (IC50) fell in the range of 100 to 500 nM.
